Data on 27 molecules can be found in patent US6500959B1, “Pyrrolidine derivatives and processes for preparing same” (GPI NIL Holdings, Inc., priority 1995, dated 2002).

Test [1] has as its system chick dorsal root ganglia. Put plainly: Chick dorsal root ganglion cultures and neurite outgrowth. Format: cell-based. Conditions: read-out: ED50, neurite outgrowth. From the text:
Forty-eight hours later, the number of neurite with a length greater than one DRG explant was quantitated. The number of neurites expressed in untreated DRG's was subtracted from the neurite number of Example 17—treated samples to yield Example 17—dependent specific neurite outgrowth.
Forty-eight hours later, the number of neurite with a length greater than one DRG explant was quantitated. The number of neurites expressed in untreated DRG's was subtracted form the neurite number of Example 17—treated samples to yield Example 17—dependent specific neurite outgrowth. Quantitative dose-dependent neurite outgrowth elicited by Example 17 is presented.
Dorsal root ganglia were dissected from chick embryos of ten day gestation. Whole ganglion explants were cultured on thin layer Matrigel-coated 12 well plates with Liebovitz L15 plus high glucose media supplemented with 2 mM glutamine and 10% fetal calf serum, and also containing 10 μM cytosine β-D arabinofuranoside (Ara C) at 37° C. in an environment containing 5% CO2. Twenty-four hours later, the DRGs were treated with various concentrations of nerve growth factor, immunophilin ligands or combinations of NFG plus drugs. Forty-eight hours after drug treatment, the ganglia were visualized under phase contrast or Hoffman Modulation contrast with a Zeiss Axiovert inverted microscope. Photomicrographs of the explants were made, and neurite outgrowth was quantitated. Neurites longer than the DRG diameter were counted as positive, with total number of neurites quantitated per each experimental condition. Three to four DRGs are cultured per well, and each treatment was performed in duplicate.

For another test, the target named is FKBP (Homo sapiens, UniProt P62942). Put plainly: Ki test procedure: inhibition of peptidyl-prolyl isomerase (rotamase) activity, chymotrypsin-coupled assay. Format: biochemical. Conditions: apparent Ki. The method, then: The inhibition of this reaction caused by the addition of different concentrations of inhibitor is determined, and the data is analyzed as a change in first-order rate constant as a function of inhibitor concentration to yield the apparent Ki values.
In a plastic cuvette are added […] of ice cold assay buffer (25 mM HEPES, pH 7.8, 100 mM NaCl), […] of FKBP (2.5 mM in 10 mM Tris-Cl pH 7.5, 100 mM NaCl, 1 mM dithiothreitol), […] of chymotrypsin (50 mg/ml in 1 mM HCl) and […] of test compound at various concentrations in dimethyl sulfoxide.

Another test concerns sciatic nerve. The test is described as follows: Sciatic nerve axotomy (crush), axon number and myelination. Format: in vivo, Sprague-Dawley rats. An excerpt: FIGS. 3A-3D are photomicrographs of rat […] sections. […] Sciatic nerves of 150 g male Sprague-Dawley rats were crushed at the level of the hips. […] Animals were sacrificed, sciatic nerves removed and nerve segments 2 mm distal to the crush site were sectioned and stained with Holmes silver stain (to assess axon number) and Luxol fast blue (to assess remyelination). The micrographs show sciatic nerve sections of sham operated rats, vehicle-treated lesioned animals. […] Six-week old male Sprague-Dawley rats were anesthetized, and the sciatic nerve exposed and crushed, at the level of the hip, by forceps. Test compounds or vehicle were administered subcutaneously just prior to the lesion and daily for the following 18 days. Sections of the sciatic nerve were stained with Holmes silver stain to quantify the number of axons, and Luxol fast blue to quantify the level of myelination. […] “Sham” denotes control animals that received vehicle but were not lesioned; “Vehicle” denotes animals that were lesioned and received only vehicle (i.e., no drug).

The mark [2] stands for this setting: chick DRG explants, 48 h after drug treatment.
Setting [3] is: 30 mg/kg s.c., just prior to lesion and daily for 18 days.

Entries after “also recorded” stand apart in the source; their conditions may differ. Read-outs that look alike come from different tables or passages of the source.

FKBP, sequence (P62942 whole entry): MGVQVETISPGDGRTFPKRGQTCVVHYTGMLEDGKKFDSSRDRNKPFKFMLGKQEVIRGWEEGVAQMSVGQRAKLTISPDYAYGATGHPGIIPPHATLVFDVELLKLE

With `CCC(C)(C)C(=O)C(=O)N1CCC[C@H]1C(=O)OCCC(c1ccccc1)c1ccccc1` [Example 25, 3,3-diphenyl-1-propyl (2S)-1-(3,3-dimethyl-1,2-dioxopentyl)-2-pyrrolidinecarboxylate], the EC50 in test [1] (Gallus gallus, 48 h) was found to be 0.5 nM.
Same read-out and setting: then `CCC(C)(C)C(=O)C(=O)N1CCC[C@H]1C(=O)OCCCc1cc(OC)c(OC)c(OC)c1` [Example 3, 3-(3,4,5-trimethoxyphenyl)-1-propyl (2S)-1-(3,3-dimethyl-1,2-dioxopentyl)-2-pyrrolidine-carboxylate], with 149 nM; and `CC(C)(C)C(=O)C(=O)N1CCC[C@H]1C(=O)OCCC(c1ccccc1)c1ccccc1` [Example 28, 3,3-Diphenyl-1-propyl (2S)-1-(3,3-dimethyl-1,2-dioxobutyl)-2-pyrrolidinecarboxylate], with 0.5 nM.
Take `CCC(C)(C)C(=O)C(=O)N1CCC[C@H]1C(=O)OC/C=C/c1ccc2c(c1)OCO2` [Example 6, 3-(4,5-methylenedioxyphenyl)-1-prop-2-(E)-enyl (2S)-1-(3,3-dimethyl-1,2-dioxopentyl)-2-pyrrolidinecarboxylate]: the Ki at FKBP was found to be 160 nM. Also, the EC50 in test [1] (Gallus gallus, 48 h) amounted to 75 nM.
As to `CCC(C)(C)C(=O)C(=O)N1CCC[C@H]1C(=O)OCCc1cc(OC)c(OC)c(OC)c1` [Example 16, 2-(3,4,5-trimethoxyphenyl)-1-ethyl (2S)-1-(3,3-dimethyl-1,2-dioxopentyl)-2-pyrrolidine-carboxylate], the EC50 in test [1] (Gallus gallus, 48 h) was 0.015 nM.
Still for that read-out and setting: the same measure for `CCC(C)(C)C(=O)C(=O)N1CCC[C@H]1C(=O)OCCCc1cc(OC)ccc1OC` [Example 14, 3-(2,5-dimethoxyphenyl)-1-propyl (2S)-1-(3,3-dimethyl-1,2-dioxopentyl)-2-pyrrolidine-carboxylate]: 2 nM.
On to `O=C(C(=O)N1CCC[C@H]1C(=O)OC(CCc1ccccc1)c1ccccc1)C1CCCCC1` (stereo partly drawn) [Example 20, 3-phenyl-1-phenyl-1-propyl (2S)-1-(2-cyclohexyl-1,2-dioxoethyl)-2-pyrrolidinecarboxylate], for which the Ki at FKBP amounted to 82 nM. In test [1] (setting [2]), the EC50 came to 0.13 nM.
With `CCC(C)(C)C(=O)C(=O)N1CCC[C@H]1C(=O)OC/C=C/c1cc(OC)c(OC)c(OC)c1` [Example 4, 3-(3,4,5-trimethoxyphenyl)-1-prop-2-(E)-enyl (2S)-1-(3,3-dimethyl-1,2-dioxopentyl)-2-pyrrolidine carboxylate], at FKBP, the Ki was 65 nM. The EC50 in test [1] (Gallus gallus, 48 h) was determined as 190 nM.
The matching figures for `O=C(C(=O)N1CCC[C@H]1C(=O)OCCCc1ccccc1)c1cccs1` [Example 11, 3-phenyl-1-propyl (2S)-1-(1,2-dioxo-2-[2-thienyl])ethyl-2-pyrrolidinecarboxylate]: 92 nM and 0.015 nM.
As to `O=C(CCC1CCCCC1)C(=O)N1CCC[C@H]1C(=O)OCCCc1ccccc1` [Example 22, 3-phenyl-1-propyl (2S)-1-(2-cyclohexyl-ethyl-1,2-dioxoethyl)-2-pyrrolidinecarboxylate], the EC50 in test [1] (Gallus gallus, 48 h) stood at 0.66 nM.
Take `CC(C)(C)C(=O)C(=O)N1CCC[C@H]1C(=O)OCCCc1cccnc1` [Example 24, 3-(3-pyridyl)-1-propyl (2S)-1-(2-tert-butyl-1,2-dioxoethyl)-2-pyrrolidinecarboxylate]: the EC50 in test [1] (Gallus gallus, 48 h) came out at 0.014 nM.
Regarding `O=C(C(=O)N1CCC[C@H]1C(=O)OCCC(c1ccccc1)c1ccccc1)c1cccs1` [Example 30, 3,3-Diphenyl-1-propyl (2S)-1-(2-thienyl) glyoxyl-2-pyrrolidinecarboxylate], at FKBP, the Ki was 150 nM. In addition, the EC50 in test [1] (Gallus gallus, 48 h) is 100 nM.
The matching figures for `CCC(C)(C)C(=O)C(=O)N1CCC[C@H]1C(=O)OC/C=C/c1ccccc1` [Example 2, 3-phenyl-1-prop-2-(E)-enyl (2S)-1-(3,3-dimethyl-1,2-dioxopentyl)-2-pyrrolidinecarboxylate]: 125 nM and 105 nM.
`CCC(C)(C)C(=O)C(=O)N1CCC[C@H]1C(=O)OCCCc1ccccc1` [Example 1, 3-phenyl-1-propyl (2S)-1-(3,3-dimethyl-1,2-dioxopentyl)-2-pyrrolidinecarboxylate]: the EC50 in test [1] (Gallus gallus, 48 h) was found to be 53 nM. Also, in the test on sciatic nerve (setting [3]), the “axon number, decrease as compared to non-lesioned control” value came out at 5% and the “degree of myelination, decrease as compared to control” value is 50%. In the test with sciatic nerve (30 mg/kg s.c., compared with sham and vehicle-treated lesioned animals), the “neuronal regeneration, appearance of sciatic nerve sections” value was “striking similarity to the sham treated animals; also recorded: promotes neuronal regeneration following sciatic nerve lesions”. Further, the “Axon Number (% Control)” value in the test on sciatic nerve (lesioned rats, 30 mg/kg s.c. daily, Holmes silver stain) was found to be 100 % Control. Further, the “Myelin Level” value in the test on sciatic nerve (lesioned rats, 30 mg/kg s.c. daily, Luxol fast blue, Sham = 100) came out at 50.
Regarding `CCC(C)(C)C(=O)C(=O)N1CCC[C@H]1C(=O)OCCCc1ccc2c(c1)OCO2` [Example 5], the Ki at FKBP worked out at 170 nM. Also, in test [1] (setting [2]), the EC50 is 10 nM.
`O=C(C(=O)N1CCC[C@H]1C(=O)OCCCc1ccccc1)c1ccco1` [Example 10, 3-phenyl-1-propyl (2S)-1-(1,2-dioxo-2-[2-furanyl])ethyl-2-pyrrolidinecarboxylate]: the Ki at FKBP worked out at 4000 nM. Besides, the EC50 in test [1] (Gallus gallus, 48 h) was found to be 0.46 nM.
In the same order, the values of `O=C(C(=O)N1CCC[C@H]1C(=O)OCCCc1cccnc1)c1cccs1` [Example 27, 3-(3-Pyridyl)-1-propyl (2S)-N-([2-thienyl]glyoxyl)pyrrolidinecarboxylate] are 1000 nM and 500 nM.
On to `CCC(C)(C)C(=O)C(=O)N1CCC[C@H]1C(=O)OCCCc1ccccn1` [Example 18, 3-(2-Pyridyl)-1-propyl (2S)-1-(3,3-dimethyl-1,2-dioxopentyl)-2-pyrrolidinecarboxylate], for which the EC50 in test [1] (Gallus gallus, 48 h) worked out at 30 nM.
On the same count and under the same terms, the same measure for `O=C(CCC1CCCCC1)C(=O)N1CCC[C@H]1C(=O)OCCCc1cccnc1` [Example 23, 3-(3-pyridyl)-1-propyl (2S)-1-(2-cyclohexylethyl-1,2-dioxoethyl)-2-pyrrolidinecarboxylate]: 1100 nM; for `CC(C)(C)C(=O)C(=O)N1CCC[C@H]1C(=O)OCCCc1ccccc1` [Example 21, 3-phenyl-1-propyl (2S)-1-(2-tert-butyl-1,2-dioxoethyl)-2-pyrrolidinecarboxylate]: 0.025 nM; for `O=C(C(=O)N1CCC[C@H]1C(=O)OCCCc1cccnc1)C1CCCCC1` [Example 26, 3-(3-pyridyl)-1-propyl (2S)-1-(2-cyclohexyl-1,2-dioxoethyl)-2-pyrrolidinecarboxylate]: 2 nM.
Consider `O=C(C(=O)N1CCC[C@H]1C(=O)OCCCc1ccccc1)c1nccs1` [Example 12, 3-phenyl-1-propyl (2S)-1-(1,2-dioxo-2-[2-thiazolyl])ethyl-2-pyrrolidinecarboxylate], for which, at FKBP, the Ki was determined as 100 nM.
Regarding `CCC(C)(C)C(=O)C(=O)N1CCC[C@H]1C(=O)OCCCc1ccncc1` [Example 19, 3-(4-Pyridyl)-1-propyl (2S)-1-(3,3-dimethyl-1,2-dioxopentyl)-2-pyrrolidinecarboxylate], the EC50 in test [1] (Gallus gallus, 48 h) came out at 6 nM.
Take `O=C(C(=O)N1CCC[C@H]1C(=O)OCCCc1ccccc1)c1ccccc1` [Example 13, 3-phenyl-1-propyl (2S)-1-(1,2-dioxo-2-phenyl)ethyl-2-pyrrolidinecarboxylate]: at FKBP, the Ki worked out at 1970 nM.
Turning to `CCC(C)(C)C(=O)C(=O)N1CCC[C@H]1C(=O)OC/C=C/C1CCCCC1` [Example 8, 3-cyclohexyl-1-prop-2-(E)-enyl (2S)-1-(3,3-dimethyl-1,2-dioxopentyl)-2-pyrrolidinecarboxylate], on FKBP, the Ki came out at 600 nM.
As to `CCC(C)(C)C(=O)C(=O)N1CCC[C@H]1C(=O)OC/C=C/c1cc(OC)ccc1OC` [Example 15, 3-(2,5-dimethoxyphenyl)-1-prop-2-(E)-enyl (2S)-1-(3,3-dimethyl-1,2-dioxopentyl)-2-pyrrolidine-carboxylate], on FKBP, the Ki turned out to be 450 nM. Also, the EC50 in test [1] (Gallus gallus, 48 h) was 0.8 nM.
For the molecule `O=C(C(=O)N1CCC[C@H]1C(=O)OCCC(c1ccccc1)c1ccccc1)C1CCCCC1` [Example 29, 3,3-Diphenyl-1-propyl (2S)-1-cyclohexyl glyoxyl-2-pyrrolidinecarboxylate], the Ki on FKBP was found to be 20 nM. Besides, the EC50 in test [1] (Gallus gallus, 48 h) stood at 10 nM.
